# Laboratory results taken from patent publication US20150126467A1, “USE OF ALGINATE OLIGOMERS TO ENHANCE THE EFFECTS OF ANTIFUNGAL AGENTS” (AlgiIPharma AS, priority 2011, published 2015).
# Where two headings read alike, the source gives them in different places.
# Experiments:
# Candida albicans = assay: Robotic MIC assay with asthma/COPD medicaments (Example 5); format: cell-based; conditions: for effect on growth of C. albicans: at the given concentrations, data not shown; for influence on the MIC values of nystatin or amphotericin B in combination with OligoG CF5/20: ipratropium bromide and salbutamol at 0.01 mM and 1 mM, budesonide at 0.01 mM, formoterol at 0.5 mM
# Procedure: A robotic MIC Assay was performed as follows. OligoG CF-5/20 were dissolved in medium (Mueller-Hinton broth or M19 broth depending on experiment) to 1.25 times of the desired assay concentrations (2, 6 and 10%). The antifungal agents under test were dissolved in medium without OligoG CF-5/20 and in medium with OligoG CF-5/20 at a concentration of 1.25 times the highest desired assay concentrations. For experiments where the effect of adding different concentrations of Na^+ was investigated, NaCl was dissolved in medium to the desired concentrations (10, 30 and 50 mM).
# Two-fold serial dilutions of antifungal agents were made in medium with different concentrations of OligoG CF-5/20, and the solutions were placed in four parallel wells in Nunc 384-well micro plates (30 μl per well in Nunc 242757 microplates). A group of 8 wells with no addition of antifungal agents for each OligoG CF-5/20 concentration was included on each microplate as growth reference. To each well in the 384-well assay plates was added 7.5 μl of medium inoculated with a frozen stock culture of Candida albicans (strain CCUG 39343).
# The micro plates were placed in plastic bags and incubated without shaking at 34° C. The optical density at 600 nm in the microwells was measured after approximately 13, 18, 24 and 34 hours of incubation, and the relative growth yield in each well was calculated based on the growth in the reference groups.
# The robotic assay described in Example 1 was employed in this Example. […] The concentration utilized for the different components were based on information from Manocha et al. (2006).
# In this assay only Mueller-Hinton broth was used since this is the medium specified for standardized MIC assays (Jorgensen et al., 1999).
# [1] = test system: Aspergillus fumigatus CCUG 17460; assay: Robotic MIC assay, Aspergillus (Example 4); format: cell-based; conditions: Aspergillus fumigatus, CCUG17460, 48 h, Mueller-Hinton broth, read-out: Minimum Inhibitory Concentration (MIC)
# Procedure: (§1) Aspergillus sp. was grown at 30° C. for 96 h on YM-agar. Spores and aerial mycelium was cut out from the agar, suspended in 1 ml YM-broth and dispersed with glass beads (1 mm) in a mini bead beater for 2 min. Glycerol was added to the suspension to 10% and frozen at −80° C.
# (§2) Each batch of frozen stock culture was then characterized in separate growth experiments using Mueller-Hinton broth to determine the minimum amount of inoculum giving satisfactory growth after 48 h under the conditions relevant for the MIC assay. This inoculation procedure is used in order to reduce day to day variation in bioassays.
# (§3) Robotic minimum inhibitory concentration (MIC) assay was performed as follows. OligoG CF-5/20 was dissolved in medium (Mueller-Hinton broth) to 1.25 times of the desired assay concentrations (2, 6 and 10%). […].
# (§4) Two-fold serial dilutions of antifungal agents were made in medium with different concentrations of OligoG CF-5/20, and the solutions were placed in four parallel wells in Nunc 384-well micro plates (30 μl per well in Nunc 242757 microplates). A group of 8 wells with no addition of antifungal agents for each OligoG CF-5/20 concentration was included on each micro plate as growth reference. Each well in the 384-well assay plates was added 7.5 μl of the MH medium inoculated with frozen stock culture of the relevant strains.
# (§5) The microplates were placed in plastic bags and incubated without shaking at 34° C. The optical density at 600 nm in the microwells was measured after approximately 24 and 48 hours of incubation. […]
# [2] = test system: Aspergillus niger CCUG 18919; assay: Robotic MIC assay, Aspergillus (Example 4); format: cell-based; conditions: Aspergillus niger, CCUG18919, 48 h, Mueller-Hinton broth, read-out: Minimum Inhibitory Concentration (MIC)
# Procedure: as §1, §2, §3, §4, §5
# [3] = test system: Aspergillus flavus CCUG 28296; assay: Robotic MIC assay, Aspergillus (Example 4); format: cell-based; conditions: Aspergillus flavus, CCUG23451 / CCUG28296, 48 h, Mueller-Hinton broth, read-out: Minimum Inhibitory Concentration (MIC)
# Procedure: as §1, §2, §3, §4, §5
# [4] = test system: various Aspergillus species; assay: Robotic MIC assay, summary over species (Example 4); format: cell-based; conditions: Aspergillus species tested
# Procedure: as §1, §2, §3, §4, §5
# [5] = cited from earlier work
compound,measurement,setting,value
"CC(C)[N+]1(C)[C@@H]2CC[C@H]1C[C@@H](OC(=O)C(CO)c1ccccc1)C2.O.[Br-] (stereo partly shown) [Ipratropium bromide, ipratropium bromide monohydrate]",effect on growth of C. albicans,Candida albicans,did not affect growth
same,influence on the MIC values of nystatin or amphotericin B in combination with OligoG CF5/20,Candida albicans,do not significantly influence
"C[C@@H](c1ncncc1F)[C@](O)(Cn1cncn1)c1ccc(F)cc1F [Voriconazole, voriconazole]",MIC,"[1]; A. fumigatus CCUG 17460, 0% OligoG",0.125 µg/mL
same,MIC,"[1]; A. fumigatus CCUG 17460, 2% OligoG",0.125 µg/mL
same,MIC,"[1]; A. fumigatus CCUG 17460, 6% OligoG",0.0625 µg/mL
same,MIC,"[1]; A. fumigatus CCUG 17460, 10% OligoG",0.0312 µg/mL
same,MIC,"[2]; A. niger CCUG 18919, 0% OligoG",0.25 µg/mL
same,MIC,"[2]; A. niger CCUG 18919, 2% OligoG",0.0625 µg/mL
same,MIC,"[2]; A. niger CCUG 18919, 6% OligoG",< 0.0312 µg/mL
same,MIC,"[2]; A. niger CCUG 18919, 10% OligoG",< 0.0312 µg/mL
same,MIC,"[3]; A. flavus CCUG 23451, 0% OligoG",0.0625 µg/mL
same,MIC,"[3]; A. flavus CCUG 23451, 2% OligoG",0.0625 µg/mL
same,MIC,"[3]; A. flavus CCUG 23451, 6% OligoG",< 0.0312 µg/mL
same,MIC,"[3]; A. flavus CCUG 23451, 10% OligoG",< 0.0312 µg/mL
same,effect of addition of OligoG CF-5/20 on MIC values,[4],reduction in MIC values
CCCC1O[C@@H]2C[C@H]3[C@@H]4CCC5=CC(=O)C=C[C@]5(C)[C@H]4[C@@H](O)C[C@]3(C)[C@]2(C(=O)CO)O1 (stereo partly shown) [budesonide],solubility in water,[5],limited solubility in water
CC(C)(C)NCC(O)c1ccc(O)c(CO)c1 (stereo not shown) [salbutamol],solubility in water,[5],soluble in water
same,effect on growth of C. albicans,Candida albicans,did not affect growth
same,influence on the MIC values of nystatin or amphotericin B in combination with OligoG CF5/20,Candida albicans,do not significantly influence
